{"source": "patent US10172994B2", "about": "“Hemodiafiltration method” (Fresenius Medical Care Deutschland GmbH, priority 2012, dated 2019)", "molecular_target": "bovine serum albumin (Bos taurus, UniProt P02769)", "sequence (P02769 25-607)": "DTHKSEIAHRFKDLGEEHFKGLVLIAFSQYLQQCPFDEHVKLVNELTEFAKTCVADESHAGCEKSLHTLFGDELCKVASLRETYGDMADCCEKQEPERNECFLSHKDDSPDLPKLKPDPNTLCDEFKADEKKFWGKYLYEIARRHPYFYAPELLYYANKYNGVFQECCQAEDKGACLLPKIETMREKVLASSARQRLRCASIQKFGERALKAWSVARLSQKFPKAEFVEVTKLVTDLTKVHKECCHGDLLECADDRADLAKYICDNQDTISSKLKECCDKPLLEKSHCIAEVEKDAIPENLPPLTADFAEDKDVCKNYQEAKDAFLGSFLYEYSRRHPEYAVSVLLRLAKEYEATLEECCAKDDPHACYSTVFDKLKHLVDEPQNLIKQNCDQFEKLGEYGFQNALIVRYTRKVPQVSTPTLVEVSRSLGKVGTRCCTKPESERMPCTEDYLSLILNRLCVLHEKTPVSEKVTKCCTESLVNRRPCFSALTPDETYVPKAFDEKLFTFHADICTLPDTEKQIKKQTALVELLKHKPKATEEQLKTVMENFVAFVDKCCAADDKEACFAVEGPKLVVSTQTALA", "test": "HF field effect 1 to 170 MHz on separation of phenylacetic acid from BSA solution in dialysis module (HPLC)", "format": "in vitro ADME", "settings": "BSA 60 mg/ml, 1 mmol/l toxin", "description": "Examination of the HF field effect in the frequency range 1 to 170 MHz.\nThe HF field was varied in subbands of 10 MHz in the frequency range 1-170 MHz and was compared with a control experiment without an HF field.\nThe quantitative determination of the phenylacetic acid was performed using HPLC.\nThe results of the experiments are collected in FIG. 4. […] The effect was particularly pronounced at 54.6% in the subband from 110 to 120 MHz.", "data": [{"smiles": "O=C(O)Cc1ccccc1", "note": "[phenylacetic acid]", "values": [{"measurement": "increase of separation rate under the influence of the HF field", "setting": "HF field 1-170 MHz in subbands of 10 MHz vs control without HF field", "result": "at least 45.3%"}, {"measurement": "increase of separation rate under the influence of the HF field", "setting": "subband from 110 to 120 MHz vs control without HF field", "result": 54.6, "unit": "%"}]}]}
